A word on the MIC: it is the lowest concentration that inhibits growth of the organism.

≈ marks a conversion by molar mass, not a printed value. Calls of active or inactive are those of the source.

Assay [1] concerns Staphylococcus aureus. The assay is described as follows: Antimicrobial activity against Staphylococcus aureus ATCC 29213 assessed as microbial growth inhibition measured after 18 hrs by CLSI based broth microdilution method. It counts as functional. For orientation: Dilution methods test growth across graded concentrations, often in twofold steps.
Assay [2] has as its system Lipid bilayer. The assay is described as follows: Induction of pore formation in anionic DOPC/DOPG lipid bilayer membrane model at 1 to 100 ug/ml. To be noted: dose 1-100 µg/ml.
The test system of assay [3] is Lipid bilayer. Put plainly: Induction of pore formation in anionic TOCL lipid bilayer membrane model at 1 to 100 ug/ml in presence of CaCl2. To be noted: dose 1-100 µg/ml.
The test system of the next assay is Micrococcus luteus. The assay is described as follows: Antimicrobial activity against Micrococcus luteus assessed as microbial growth inhibition in presence of Ca2+ by susceptibility testing method. The class given is functional, organism-based.
The subject of another assay is Pseudomonas aeruginosa. The assay is described as follows: Antimicrobial activity against Pseudomonas aeruginosa assessed as microbial growth inhibition in presence of Ca2+ by susceptibility testing method. The class given is functional, organism-based.
Assay [4] deals with Staphylococcus aureus. Put plainly: Antimicrobial activity against Staphylococcus aureus ATCC 29213 assessed as microbial growth inhibition in presence of <=200 mM of (H2PO4)-/(HPO4)2- by susceptibility testing method. The class given is functional, organism-based.
In assay [5] the test system is Staphylococcus aureus. Put plainly: Antimicrobial activity against Staphylococcus aureus ATCC 29213 assessed as microbial growth inhibition in presence of Fe3+ by susceptibility testing method. The class given is functional.
Assay [6] has as its system Lipid bilayer. Put plainly: Induction of pore formation in anionic TMoCL lipid bilayer membrane model assessed as pore-forming threshold concentration.
Assay [7] concerns Staphylococcus aureus. Put plainly: Antimicrobial activity against Staphylococcus aureus ATCC 29213 assessed as microbial growth inhibition in presence of Cu2+ by susceptibility testing method. It counts as functional.
Assay [8] relates to Lipid bilayer. The assay is described as follows: Induction of pore formation in anionic DOPC/DOPG lipid bilayer membrane model at 1 to 100 ug/ml in presence of CaCl2. The note with it: dose 1-100 µg/ml.
Assay [9] concerns Lipid bilayer. The assay is described as follows: Induction of pore formation in cationic DOPC/DOTAP lipid bilayer membrane model at 1 to 100 ug/ml in presence of CaCl2. The note with it: dose 1-100 µg/ml.
The subject of a further assay is Bacillus cereus. The assay is described as follows: Antimicrobial activity against Bacillus cereus X1 assessed as microbial growth inhibition in presence of Ca2+ by susceptibility testing method. It counts as functional, organism-based.
Another assay has as its system Macrococcus caseolyticus. The assay is described as follows: Antimicrobial activity against Macrococcus caseolyticus assessed as microbial growth inhibition in presence of Ca2+ by susceptibility testing method. To be noted: Macrococcoides caseolyticum. The class given is functional, organism-based.
Assay [10] relates to Staphylococcus aureus. Put plainly: Antimicrobial activity against Staphylococcus aureus ATCC 29213 assessed as microbial growth inhibition in presence of Mn2+ by susceptibility testing method. It counts as functional.
Assay [11] relates to Staphylococcus aureus. Put plainly: Antimicrobial activity against Staphylococcus aureus ATCC 29213 assessed as microbial growth inhibition at pH 5 to 6 by susceptibility testing method. The class given is functional, organism-based.
Assay [12] relates to Staphylococcus aureus. Put plainly: Antimicrobial activity against Staphylococcus aureus ATCC 29213 assessed as microbial growth inhibition in presence of Ca2+ by susceptibility testing method. It counts as functional.
Assay [13] relates to Lipid bilayer. The assay is described as follows: Induction of pore formation in zwitter-ionic DOPC lipid bilayer membrane model at 1 to 100 ug/ml. The note with it: dose 1-100 µg/ml.
Assay [14] has as its system Staphylococcus aureus. Put plainly: Antimicrobial activity against Staphylococcus aureus ATCC 29213 assessed as microbial growth inhibition in presence of Zn2+ by susceptibility testing method. It counts as functional.
For assay [15], the system named is Escherichia coli. Put plainly: Antimicrobial activity against Escherichia coli expressing delta-tolC/KanR assessed as microbial growth inhibition in presence of Ca2+ by susceptibility testing method. The class given is functional, organism-based.
Assay [16] concerns Lipid bilayer. Put plainly: Induction of pore formation in cationic DOPC/DOTAP lipid bilayer membrane model at 1 to 100 ug/ml. The note with it: dose 1-100 µg/ml.
The test system of assay [17] is Staphylococcus aureus. The assay is described as follows: Antimicrobial activity against Staphylococcus aureus ATCC 29213 assessed as microbial growth inhibition in presence of Na+ by susceptibility testing method. It counts as functional.
Assay [18] relates to Escherichia coli. The assay is described as follows: Antimicrobial activity against Escherichia coli BL21 (DE3) assessed as microbial growth inhibition in presence of Ca2+ by susceptibility testing method. The class given is functional, organism-based.
In assay [19] the test system is Lipid bilayer. Put plainly: Induction of pore formation in anionic DPhPG lipid bilayer membrane model at 1 to 100 ug/ml. The note with it: dose 1-100 µg/ml.
Assay [20] concerns Lipid bilayer. Put plainly: Induction of pore formation in anionic TMoCL lipid bilayer membrane model assessed as pore-forming threshold concentration in presence of CaCl2.
The subject of assay [21] is Lipid bilayer. Put plainly: Induction of pore formation in anionic DPhPG lipid bilayer membrane model at 1 to 100 ug/ml in presence of CaCl2. To be noted: dose 1-100 µg/ml.
For assay [22], the system named is Lipid bilayer. The assay is described as follows: Induction of pore formation in anionic TOCL lipid bilayer membrane model at 1 to 100 ug/ml. To be noted: dose 1-100 µg/ml.
Assay [23] deals with Lipid bilayer. Put plainly: Induction of pore formation in anionic TMoCL lipid bilayer membrane model at 1 to 100 ug/ml. The note with it: dose 1-100 µg/ml.
Assay [24] has as its system Staphylococcus aureus. Put plainly: Antimicrobial activity against Staphylococcus aureus ATCC 29213 assessed as microbial growth inhibition in presence of K+ by susceptibility testing method. It counts as functional.
In assay [25] the test system is Staphylococcus aureus. The assay is described as follows: Antimicrobial activity against Staphylococcus aureus ATCC 29213 assessed as microbial growth inhibition in presence of Mg2+ by susceptibility testing method. The class given is functional.
Assay [26] concerns Staphylococcus aureus. Put plainly: Antimicrobial activity against Staphylococcus aureus ATCC 29213 assessed as microbial growth inhibition at pH 5 to 6 by microdilution method. The class given is functional, organism-based.

In the case of `CC(C)/C=C/C=C\C(=O)NCCC(=O)N[C@@H](CCCN)C(=O)NC(CC(O)c1ccccc1)C(=O)NC(C(=O)N[C@@H](Cc1ccc(O)cc1)C(=O)NC1C(=O)N[C@H](CC(C)C)C(=O)N[C@@H](CC(=O)O)C(=O)NCC(=O)N[C@@H](CO)C(=O)NCC(=O)N[C@@H](CC(=O)c2ccc(Cl)cc2N)C(=O)N[C@@H](C)C(=O)N2CCC[C@H]2C(=O)NC1C)C(O)CC(=O)O` (some centres not stated), the MIC with Staphylococcus aureus [1] came to 8 mg/L (≈ 4.66 µM).
On to `CC(C)/C=C/C=C\C(=O)NCCC(=O)N[C@@H](CCCNC(=O)CCN)C(=O)NC(CC(O)c1ccccc1)C(=O)NC(C(=O)N[C@@H](Cc1ccc(OC2OC[C@H](O)[C@H](O)[C@H]2O)cc1)C(=O)NC1C(=O)N[C@H](CC(C)C)C(=O)N[C@@H](CC(=O)O)C(=O)NCC(=O)N[C@@H](CO)C(=O)NCC(=O)N[C@@H](CC(=O)c2ccc(Cl)cc2N)C(=O)N[C@@H](C)C(=O)N2CCC[C@H]2C(=O)NC1C)C(O)CC(=O)O` (some centres not stated), for which the outcome with Lipid bilayer [2], with Lipid bilayer [3], with Lipid bilayer [8], in the assay on Lipid bilayer [9], with Lipid bilayer [16] and in the assay on Lipid bilayer [19] was Active. Also, the result in the assay with Lipid bilayer [21], with Lipid bilayer [22] and in the assay on Lipid bilayer [23] was Active. The inhibition result in the assay with Micrococcus luteus, with Bacillus cereus and with Macrococcus caseolyticus was “Active” each time. In addition, the inhibition result in the assay on Pseudomonas aeruginosa, in the assay on Escherichia coli [15] and in the assay with Escherichia coli [18] was “inactive” each time. Further, the outcome in the assay with Staphylococcus aureus [4] and in the assay with Lipid bilayer [13] was inactive. The “growth inhibition (GI)” value in the assay on Staphylococcus aureus [5], in the assay with Staphylococcus aureus [7], in the assay with Staphylococcus aureus [10], in the assay on Staphylococcus aureus [11], in the assay with Staphylococcus aureus [12] and in the assay with Staphylococcus aureus [14] was “Active” in each case. For the same molecule, the “growth inhibition (GI)” value with Staphylococcus aureus [17], in the assay on Staphylococcus aureus [24] and in the assay on Staphylococcus aureus [25] was “Active” each time. For the same molecule, the Activity in the assay on Lipid bilayer [6] was 10 µg/mL; with Lipid bilayer [20] it was 7 µg/mL. The MIC with Staphylococcus aureus [1] was 2 mg/L (≈ 1.04 µM).
In the case of `CNCCC(=O)NCCC[C@H](NC(=O)CCNC(=O)/C=C\C=C\C(C)C)C(=O)NC(CC(O)c1ccccc1)C(=O)NC(C(=O)N[C@@H](Cc1ccc(OC2OC[C@H](O)[C@H](O)[C@H]2O)cc1)C(=O)NC1C(=O)N[C@H](CC(C)C)C(=O)N[C@@H](CC(=O)O)C(=O)NCC(=O)N[C@@H](CO)C(=O)NCC(=O)N[C@@H](CC(=O)c2ccc(Cl)cc2N)C(=O)N[C@@H](C)C(=O)N2CCC[C@H]2C(=O)NC1C)C(O)CC(=O)O` (some centres not stated), the MIC in the assay on Staphylococcus aureus [1] was 4 mg/L (≈ 2.07 µM).
`CN[C@H](CC(C)C)C(=O)N[C@H]1C(=O)N[C@@H](CC(N)=O)C(=O)N[C@H]2C(=O)N[C@H]3C(=O)N[C@H](C(=O)N[C@H](C(=O)O)c4cc(O)cc(O)c4-c4cc3ccc4O)[C@H](O)c3ccc(c(Cl)c3)Oc3cc2cc(c3O[C@@H]2O[C@H](CO)[C@@H](O)[C@H](O)[C@H]2O[C@H]2C[C@](C)(N)[C@H](O)[C@H](C)O2)Oc2ccc(cc2Cl)[C@H]1O`: the “growth inhibition (GI)” value with Staphylococcus aureus [11] is “Active”.
On to `CC(C)/C=C/C=C\C(=O)NCCC(=O)N[C@@H](CCCNC(=O)CCN)C(=O)NC(CC(O)c1ccccc1)C(=O)NC(C(=O)N[C@@H](Cc1ccc(O)cc1)C(=O)NC1C(=O)N[C@H](CC(C)C)C(=O)N[C@@H](CC(=O)O)C(=O)NCC(=O)N[C@@H](CO)C(=O)NCC(=O)N[C@@H](CC(=O)c2ccc(Cl)cc2N)C(=O)N[C@@H](C)C(=O)N2CCC[C@H]2C(=O)NC1C)C(O)CC(=O)O` (some centres not stated), for which the MIC in the assay on Staphylococcus aureus [1] is 8 mg/L (≈ 4.48 µM).
Regarding `NC[C@H]1O[C@H](O[C@H]2[C@H](O)[C@@H](O[C@H]3O[C@H](CO)[C@@H](O)[C@H](N)[C@H]3O)[C@H](N)C[C@@H]2N)[C@H](N)C[C@@H]1O`, in the assay with Staphylococcus aureus [11], the “growth inhibition (GI)” value was “Active”.
In the case of `NCC[C@H](O)C(=O)N[C@@H]1C[C@H](N)[C@@H](O[C@H]2O[C@H](CN)[C@@H](O)[C@H](O)[C@H]2O)[C@H](O)[C@H]1O[C@H]1O[C@H](CO)[C@@H](O)[C@H](N)[C@H]1O`, the “growth inhibition (GI)” value in the assay with Staphylococcus aureus [11] is “Active”.
On to `CNCCC(=O)NCCC[C@H](NC(=O)CCNC(=O)/C=C\C=C\C(C)C)C(=O)NC(CC(O)c1ccccc1)C(=O)NC(C(=O)N[C@@H](Cc1ccc(O)cc1)C(=O)NC1C(=O)N[C@H](CC(C)C)C(=O)N[C@@H](CC(=O)O)C(=O)NCC(=O)N[C@@H](CO)C(=O)NCC(=O)N[C@@H](CC(=O)c2ccc(Cl)cc2N)C(=O)N[C@@H](C)C(=O)N2CCC[C@H]2C(=O)NC1C)C(O)CC(=O)O` (some centres not stated), for which the minimal inhibitory concentration (MIC) with Staphylococcus aureus [1] is 16 mg/L (≈ 8.89 µM).
Turning to `CCCCCCCCCC(=O)N[C@@H](Cc1c[nH]c2ccccc12)C(=O)N[C@H](CC(N)=O)C(=O)N[C@@H](CC(=O)O)C(=O)N[C@@H]1C(=O)NCC(=O)N[C@@H](CCCN)C(=O)N[C@@H](CC(=O)O)C(=O)N[C@H](C)C(=O)N[C@@H](CC(=O)O)C(=O)NCC(=O)N[C@H](CO)C(=O)N[C@@H]([C@H](C)CC(=O)O)C(=O)N[C@@H](CC(=O)c2ccccc2N)C(=O)O[C@@H]1C`, the “growth inhibition (GI)” value in the assay on Staphylococcus aureus [26] is “Active”.

(Values after ChEMBL document CHEMBL5335813, “Gausemycin Antibiotic Family Acts via Ca2+-Dependent Membrane Targeting” (2024).)
